According to paper PMC5931096, “A Phase I study of the novel immunomodulatory agent PG545 (pixatimod) in subjects with advanced solid tumours” (British Journal of Cancer, 2018):

Test: Phase I dose-escalation: safety, tolerability, DLT and MTD of weekly 1-h IV infusion
Assay type: in vivo
Details: Safety Set
Protocol: The study was an open-label, multicentre, phase 1 dose-escalation study using a 3 + 3 design. The primary objective was to determine the MTD of weekly administered PG545 via IV infusion. Secondary objectives were to characterize safety, tolerability, clinical activity, PK and PD biomarkers.
Patients continued treatment until disease progression, unacceptable toxicity or withdrawal (either voluntarily or investigator-decision).
All patients were assessed for safety, those who received at least one dose of PG545 were evaluated for efficacy. Safety assessment included the incidence of all adverse events (AEs), irrespective of relationship to study drug, according to the National Cancer Institute Common Terminology Criteria for Adverse Events, version 4.0, and the incidence of patients experiencing dose modifications and/or premature discontinuation of study drug. Dose-limiting toxicities (DLTs) used to determine the MTD were defined as occurring during Cycle 1 of treatment only and related to PG545 according to investigator assessment. If no DLT occurred in the first three subjects, the next three-subject cohort was enrolled at the next highest available dose level. If a single DLT occurred, an additional three subjects was enrolled at the same dose level. Dose escalation continued until two subjects of the cohort experienced a DLT; this was defined as the toxic dose level. The dose-escalation phase was completed and MTD determined by reducing the dose to the next lowest dose compared to the toxic dose and expanding this cohort to at least 6 subjects.

## CC(C)CCC[C@@H](C)[C@H]1CC[C@H]2[C@@H]3CC[C@H]4C[C@@H](O[C@@H]5O[C@H](COS(=O)(=O)O)[C@@H](O[C@H]6O[C@H](COS(=O)(=O)O)[C@@H](O[C@H]7O[C@H](COS(=O)(=O)O)[C@@H](O[C@H]8O[C@H](COS(=O)(=O)O)[C@@H](OS(=O)(=O)O)[C@H](OS(=O)(=O)O)[C@H]8OS(=O)(=O)O)[C@H](OS(=O)(=O)O)[C@H]7OS(=O)(=O)O)[C@H](OS(=O)(=O)O)[C@H]6OS(=O)(=O)O)[C@H](OS(=O)(=O)O)[C@H]5OS(=O)(=O)O)CC[C@]4(C)[C@H]3CC[C@]12C [PG545]
Mild, Unrelated
  TEAE: Blood creatinine increased: 1 (4.3%)
  TEAE: Chest discomfort: 1 (4.3%)
  TEAE: Chest pain: 2 (8.7%)
  TEAE: Constipation: 5 (21.7%)
  TEAE: Cough: 2 (8.7%)
  TEAE: Decreased appetite: 1 (4.3%)
  TEAE: Deep vein thrombosis: 1 (4.3%)
  TEAE: Depression: 3 (13.0%)
  TEAE: Diarrhoea: 3 (13.0%)
  TEAE: Dry mouth: 1 (4.3%)
  TEAE: Dry skin: 1 (4.3%)
  TEAE: Dyspepsia: 1 (4.3%)
  TEAE: Dyspnoea: 5 (21.7%)
  TEAE: Fatigue: 2 (8.7%)
  TEAE: Fungal infection: 1 (4.3%)
  TEAE: Gastroesophageal reflux disease: 1 (4.3%)
  TEAE: Gastrointestinal disorders: 13 (56.5%)
  TEAE: General disorders and administration site conditions: 7 (30.4%)
  TEAE: Haematochezia: 1 (4.3%)
  TEAE: Headache: 1 (4.3%)
  TEAE: Hypercalcaemia: 1 (4.3%)
  TEAE: Hypertension (second line of this name): 1 (4.3%)
  TEAE: Hypokalaemia: 1 (4.3%)
  TEAE: Infections and infestations: 4 (17.4%)
  TEAE: Influenza like illness: 1 (4.3%)
  TEAE: Insomnia: 3 (13.0%)
  TEAE: Investigations: 3 (13.0%)
  TEAE: Lethargy: 2 (8.7%)
  TEAE: Malaise: 1 (4.3%)
  TEAE: Metabolism and nutritional disorders: 2 (8.7%)
  TEAE: Mucosal inflammation: 2 (8.7%)
  TEAE: Musculoskeletal and connective tissue disorders: 5 (21.7%)
  TEAE: Musculoskeletal chest pain: 1 (4.3%)
  TEAE: Nausea: 3 (13.0%)
  TEAE: Nervous system disorders: 5 (21.7%)
  TEAE: Neutrophil count increased: 1 (4.3%)
  TEAE: Onycholysis: 1 (4.3%)
  TEAE: Oropharyngeal pain: 1 (4.3%)
  TEAE: Pain: 1 (4.3%)
  TEAE: Pain in extremity: 2 (8.7%)
  TEAE: Pruritus: 1 (4.3%)
  TEAE: Psychiatric disorders: 5 (21.7%)
  TEAE: Respiratory, thoracic and mediastinal disorders: 6 (26.1%)
  TEAE: Skin and subcutaneous tissue disorders: 3 (13.0%)
  TEAE: Upper respiratory tract infection: 2 (8.7%)
  TEAE: Vascular disorders: 2 (8.7%)
  TEAE: Vomiting: 5 (21.7%)
  TEAE: Vulvovaginal candidiasis: 1 (4.3%)
  TEAE: White blood cell count increased: 1 (4.3%)
  TEAE: aPTT prolonged: 1 (4.3%)
Moderate, Related
  TEAE: At least one event: 13 (56.5%)
  TEAE: Chills: 2 (8.7%)
  TEAE: Constipation: 1 (4.3%)
  TEAE: Decreased appetite: 2 (8.7%)
  TEAE: Dehydration: 1 (4.3%)
  TEAE: Diarrhoea: 1 (4.3%)
  TEAE: Dyspnoea: 1 (4.3%)
  TEAE: Fall: 1 (4.3%)
  TEAE: Fatigue: 2 (8.7%)
  TEAE: GGT increased: 1 (4.3%)
  TEAE: Gastrointestinal disorders: 4 (17.4%)
  TEAE: General disorders and administration site conditions: 4 (17.5%)
  TEAE: Hypercholesterolaemia: 2 (8.7%)
  TEAE: Hyperlipidaemia: 1 (4.3%)
  TEAE: Hypertension: 2 (8.7%)
  TEAE: Infusion related reaction: 4 (17.4%)
  TEAE: Injury, poisoning and procedural complications: 5 (21.7%)
  TEAE: Investigations: 1 (4.3%)
  TEAE: Lethargy: 1 (4.3%)
  TEAE: Metabolism and nutritional disorders: 4 (17.4%)
  TEAE: Nausea: 1 (4.3%)
  TEAE: Nervous system disorders: 1 (4.3%)
  TEAE: Pyrexia: 1 (4.3%)
  TEAE: Respiratory, thoracic and mediastinal disorders: 1 (4.3%)
  TEAE: Vascular disorders: 2 (8.7%)
  TEAE: Vomiting: 1 (4.3%)
Moderate, Unrelated
  TEAE: AST increased: 1 (4.3%)
  TEAE: Abdominal distension: 1 (4.3%)
  TEAE: Abdominal pain: 3 (13.0%)
  TEAE: Abdominal pain lower: 1 (4.3%)
  TEAE: Abdominal pain upper: 2 (8.7%)
  TEAE: Anaemia: 2 (8.7%)
  TEAE: Arthralgia: 1 (4.3%)
  TEAE: At least one event: 14 (60.9%)
  TEAE: Back pain: 3 (13.0%)
  TEAE: Blood ALP increased: 1 (4.3%)
  TEAE: Blood and lymphatic system disorders: 2 (8.7%)
  TEAE: Blood bilirubin increased: 1 (4.3%)
  TEAE: Constipation: 1 (4.3%)
  TEAE: Cough: 1 (4.3%)
  TEAE: Decreased appetite: 3 (13.0%)
  TEAE: Depression: 1 (4.3%)
  TEAE: Diplopia: 1 (4.3%)
  TEAE: Dry mouth: 1 (4.3%)
  TEAE: Dyspnoea: 3 (13.0%)
  TEAE: Eye disorders: 1 (4.3%)
  TEAE: Fatigue: 3 (13.0%)
  TEAE: GGT increased: 1 (4.3%)
  TEAE: Gait disturbance: 1 (4.3%)
  TEAE: Gastrointestinal disorders: 6 (26.1%)
